Data from patent US9914730B2, “Azaquinazoline inhibitors of Atypical protein Kinase C” (Ignyta, Inc., priority 2012, dated 2018).

Target: T1, full-length human PKCι (Homo sapiens, UniProt P41743)
T1 construct: Recombinant, full-length human PKCι expressed in Sf21 insect cells is also commercially available; purchased; host or cells: Sf21 insect cells
T1 sequence (P41743 1-596): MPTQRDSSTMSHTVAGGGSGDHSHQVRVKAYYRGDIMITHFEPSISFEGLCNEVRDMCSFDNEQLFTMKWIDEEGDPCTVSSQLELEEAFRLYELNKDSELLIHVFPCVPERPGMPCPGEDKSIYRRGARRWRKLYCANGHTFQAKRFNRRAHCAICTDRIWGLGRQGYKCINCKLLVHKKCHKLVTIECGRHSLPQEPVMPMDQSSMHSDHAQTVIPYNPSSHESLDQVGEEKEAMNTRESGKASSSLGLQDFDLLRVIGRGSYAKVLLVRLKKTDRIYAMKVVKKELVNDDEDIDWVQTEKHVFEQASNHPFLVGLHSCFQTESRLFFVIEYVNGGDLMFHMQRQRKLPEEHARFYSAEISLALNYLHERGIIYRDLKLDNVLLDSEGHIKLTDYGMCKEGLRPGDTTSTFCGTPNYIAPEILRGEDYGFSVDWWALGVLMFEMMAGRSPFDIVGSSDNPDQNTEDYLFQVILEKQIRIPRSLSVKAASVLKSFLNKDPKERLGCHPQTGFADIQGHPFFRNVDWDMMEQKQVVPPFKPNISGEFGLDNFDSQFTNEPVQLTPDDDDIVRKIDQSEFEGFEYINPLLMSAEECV
Assay: PKCι IC50 IMAP assay, full-length PKCι at 150 μM ATP
Type: biochemical
Details: read-out: IC50 in IMAP assay against full length PKCi at 150 μM ATP
How it was run: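 Full-length human PKCι from Sf21 cells, typically 15 pM, with 100 nM 5FAM-PKCε pseudosubstrate peptide and 150 μM ATP (5× apparent KM), 60 min at room temperature, 4% DMSO. IMAP fluorescence polarisation read-out; inhibition normalised to no-compound and no-enzyme controls, IC50 from curve fit.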

IC50	Structure (SMILES)
100 to 1000 nM	FC(F)(F)c1cc2c(-c3nc(N4CCCCC4)c4c(C5CC5)cncc4n3)ccnc2[nH]1 [Example 1237, 5-Cyclopropyl-4-piperidin-1-yl-2-(2-trifluoromethyl-1H-pyrrolo[2,3-b]pyridin-4-yl)-pyrido[3,4-d]pyrimidine]
< 100 nM	OC1CCN(c2nc(-c3ccnc(Nc4cccc(N5CCOCC5)c4)c3)nc3cncc(C4CC4)c23)CC1 [Example 834, 1-{5-Cyclopropyl-2-[2-(3-morpholin-4-yl-phenylamino)-pyridin-4-yl]-pyrido[3,4-d]pyrimidin-4-yl}-piperidin-4-ol]
1000 to 10000 nM	CC(C)NC(=O)C1CCN(c2nc(-c3ccnc(Nc4c(F)cccc4F)c3)nc3cncc(C4CC4)c23)CC1 [Example 655, 1-{5-Cyclopropyl-2-[2-(2,6-difluoro-phenylamino)-pyridin-4-yl]-pyrido[3,4-d]pyrimidin-4-yl}-piperidine-4-carboxylic acid isopropylamide]
< 100 nM	Fc1cccc(Nc2cc(-c3nc(N4CCNCC4)c4c(C5CC5)cncc4n3)ccn2)n1 [Example 483, [4-(5-Cyclopropyl-4-piperazin-1-yl-pyrido[3,4-d]pyrimidin-2-yl)-pyridin-2-yl]-(6-fluoro-pyridin-2-yl)-amine]
< 100 nM	CN(C)CCNC(=O)C1CCN(c2nc(-c3ccnc(Nc4c(F)cccc4F)c3)nc3cncc(C4CC4)c23)CC1 [Example 736, 1-{5-Cyclopropyl-2-[2-(2,6-difluoro-phenylamino)-pyridin-4-yl]-pyrido[3,4-d]pyrimidin-4-yl}-piperidine-4-carboxylic acid (2-dimethylamino-ethyl)-amide]
< 100 nM	Clc1ccc(Nc2cc(-c3nc(N[C@@H]4CCNC4)c4ccncc4n3)ccn2)nc1 [Example 346, {2-[2-(5-Chloro-pyridin-2-ylamino)-pyridin-4-yl]-pyrido[3,4-d]pyrimidin-4-yl}-(R)-pyrrolidin-3-yl-amine]
100 to 1000 nM	COc1cc(N2CCOCC2)ccc1Nc1cc(-c2nc(N[C@@H]3CCNC3)c3ccncc3n2)ccn1 [Example 358, {2-[2-(2-Methoxy-4-morpholin-4-yl-phenylamino)-pyridin-4-yl]-pyrido[3,4-d]pyrimidin-4-yl}-(R)-pyrrolidin-3-yl-amine]
< 100 nM	Fc1ccc(F)c(Nc2cc(-c3nc(N4CCNCC4)c4c(C5CC5)cncc4n3)ccn2)c1Cl [Example 635, (2-Chloro-3,6-difluoro-phenyl)-[4-(5-cyclopropyl-4-piperazin-1-yl-pyrido[3,4-d]pyrimidin-2-yl)-pyridin-2-yl]-amine]
< 100 nM	C[C@@H](Nc1cc(-c2nc(N3CCNCC3)c3c(C4CC4)cncc3n2)ccn1)c1cccc(F)c1 [Example 644, [4-(5-Cyclopropyl-4-piperazin-1-yl-pyrido[3,4-d]pyrimidin-2-yl)-pyridin-2-yl]-[(R)-1-(3-fluoro-phenyl)-ethyl]-amine]
100 to 1000 nM	COc1cncc2nc(-c3ccnc(NC(=O)[C@H](C)c4ccccc4)c3)nc(N3CCNCC3)c12 [Example 408, (R)-N-[4-(5-Methoxy-4-piperazin-1-yl-pyrido[3,4-d]pyrimidin-2-yl)-pyridin-2-yl]-2-phenyl-propionamide]
< 100 nM	Fc1ccc(C2(c3cc4c(-c5nc(N6CCNCC6)c6c(C7CC7)cncc6n5)ccnc4[nH]3)CC2)cc1 [Example 2048, 5-Cyclopropyl-2-{2-[1-(4-fluoro-phenyl)-cyclopropyl]-1H-pyrrolo[2,3-b]pyridin-4-yl}-4-piperazin-1-yl-pyrido[3,4-d]pyrimidine]
< 100 nM	C[C@H]1CN(c2nc(-c3ccnc(Nc4nc(F)cc(F)c4F)c3)nc3cncc(C4CC4)c23)CCN1 [Example 2004, {4-[5-Cyclopropyl-4-((S)-3-methyl-piperazin-1-yl)-pyrido[3,4-d]pyrimidin-2-yl]-pyridin-2-yl}-(3,4,6-trifluoro-pyridin-2-yl)-amine]
